Assay results: ChEMBL document CHEMBL1201862, “PubChem BioAssay data set” (2004)
Each block holds one molecule with its values, some of them ahead of it. Calls of active or inactive are those of the source.

Experiments:
[1] = target: T1, Protein phosphatase methylesterase 1 (Homo sapiens, UniProt Q9Y570); test: Late stage results from the probe development effort to identify inhibitors of the protein methylesterase PME-1: Gel-based Activity-Based Protein Profiling (ABPP) IC50: Purified enzyme.; assay type: functional
T1 sequence (Q9Y570 whole entry): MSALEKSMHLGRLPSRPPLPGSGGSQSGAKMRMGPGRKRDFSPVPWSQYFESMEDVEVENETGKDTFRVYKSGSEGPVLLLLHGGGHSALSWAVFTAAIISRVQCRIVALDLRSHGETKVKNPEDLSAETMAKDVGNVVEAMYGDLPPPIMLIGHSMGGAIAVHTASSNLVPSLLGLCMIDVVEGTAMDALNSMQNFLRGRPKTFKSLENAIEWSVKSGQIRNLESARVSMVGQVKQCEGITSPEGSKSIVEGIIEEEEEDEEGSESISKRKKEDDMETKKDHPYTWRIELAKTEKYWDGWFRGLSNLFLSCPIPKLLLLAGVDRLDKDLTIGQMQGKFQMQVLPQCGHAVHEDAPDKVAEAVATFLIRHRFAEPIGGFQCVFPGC

[2] = target: T1, Protein phosphatase methylesterase 1; test: PME-1 inhibitor potency by in-gel ABPP, dose response, selectivity assay for PME-1 inhibitor project, cell lysate, mouse brain cytosol, FP-rhodamine, panel member PME-1 Assay Panel member description: Inhibition of endogenously expressed PME-1 (AID 2366)
[3] = target: T2, Cannabinoid receptor 1 (Homo sapiens, UniProt P21554); test: SAR analysis of antagonists of the Cannabinoid Receptor 1 using an Image-Based Assay - Set 3. [Related pubchem assays (depositor defined):AID1961, AID1965]; assay type: functional
T2 sequence (P21554 whole entry): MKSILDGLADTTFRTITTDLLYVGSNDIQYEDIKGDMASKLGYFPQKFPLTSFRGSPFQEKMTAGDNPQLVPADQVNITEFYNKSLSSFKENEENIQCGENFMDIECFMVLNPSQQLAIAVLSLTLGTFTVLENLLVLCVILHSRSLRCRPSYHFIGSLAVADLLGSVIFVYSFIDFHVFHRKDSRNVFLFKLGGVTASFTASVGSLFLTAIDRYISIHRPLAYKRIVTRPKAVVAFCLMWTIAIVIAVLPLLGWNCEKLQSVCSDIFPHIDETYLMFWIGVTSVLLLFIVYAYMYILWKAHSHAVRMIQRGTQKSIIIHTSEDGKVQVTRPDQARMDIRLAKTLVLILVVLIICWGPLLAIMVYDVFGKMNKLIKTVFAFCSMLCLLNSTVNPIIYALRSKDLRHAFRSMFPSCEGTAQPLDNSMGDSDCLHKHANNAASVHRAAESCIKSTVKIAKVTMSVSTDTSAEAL

[4] = target: T3, Cannabinoid receptor 2 (Homo sapiens, UniProt P34972); test: SAR analysis of antagonists of the Cannabinoid Receptor 2 using an Image-Based Assay - Set 2. [Related pubchem assays (depositor defined):AID1961, AID1965]; assay type: functional
T3 sequence (P34972 whole entry): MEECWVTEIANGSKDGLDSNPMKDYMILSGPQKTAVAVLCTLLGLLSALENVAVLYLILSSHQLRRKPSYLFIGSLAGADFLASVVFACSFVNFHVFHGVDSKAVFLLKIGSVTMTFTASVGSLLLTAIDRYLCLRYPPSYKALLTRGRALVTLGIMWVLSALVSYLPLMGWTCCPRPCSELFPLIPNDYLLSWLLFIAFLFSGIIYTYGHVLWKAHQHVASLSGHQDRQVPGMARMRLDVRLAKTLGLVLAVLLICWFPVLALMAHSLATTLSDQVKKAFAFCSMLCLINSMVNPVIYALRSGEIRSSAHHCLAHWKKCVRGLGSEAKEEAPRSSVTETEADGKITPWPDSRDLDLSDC

[5] = target: T4, G-protein coupled receptor 35 (Homo sapiens, UniProt Q9HC97); test: SAR analysis of Antagonists of the GPR35 Receptor using an Image-Based Assay - Set 4. [Related pubchem assays (depositor defined):[…]]; assay type: functional
T4 sequence (Q9HC97 whole entry): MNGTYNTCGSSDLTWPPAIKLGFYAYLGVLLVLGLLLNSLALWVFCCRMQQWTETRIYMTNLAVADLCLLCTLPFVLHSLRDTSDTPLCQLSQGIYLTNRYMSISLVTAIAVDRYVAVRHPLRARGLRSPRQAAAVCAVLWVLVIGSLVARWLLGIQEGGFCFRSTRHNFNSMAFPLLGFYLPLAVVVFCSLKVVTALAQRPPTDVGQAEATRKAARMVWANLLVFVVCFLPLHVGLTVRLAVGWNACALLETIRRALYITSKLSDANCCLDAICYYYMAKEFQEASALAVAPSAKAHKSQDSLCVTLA

[6] = target: T3, Cannabinoid receptor 2; test: SAR analysis of agonists of the Cannabinoid Receptor 2 using an Image-Based Assay - Set 2. [Related pubchem assays (depositor defined):AID1961, AID1965]; assay type: functional
[7] = target: T2, Cannabinoid receptor 1; test: SAR analysis of agonists of the Cannabinoid Receptor 1 using an Image-Based Assay - Set 3. [Related pubchem assays (depositor defined):AID1961, AID1965]; assay type: functional
[8] = target: G-protein coupled receptor 55 (Homo sapiens, UniProt Q9Y2T6); test: SAR analysis of selective Agonists of GPR55 using an Image-Based Assay - Set 2. [Related pubchem assays (depositor defined):AID1961, AID1965]; assay type: functional
Sequence of G-protein coupled receptor 55 (Q9Y2T6 whole entry): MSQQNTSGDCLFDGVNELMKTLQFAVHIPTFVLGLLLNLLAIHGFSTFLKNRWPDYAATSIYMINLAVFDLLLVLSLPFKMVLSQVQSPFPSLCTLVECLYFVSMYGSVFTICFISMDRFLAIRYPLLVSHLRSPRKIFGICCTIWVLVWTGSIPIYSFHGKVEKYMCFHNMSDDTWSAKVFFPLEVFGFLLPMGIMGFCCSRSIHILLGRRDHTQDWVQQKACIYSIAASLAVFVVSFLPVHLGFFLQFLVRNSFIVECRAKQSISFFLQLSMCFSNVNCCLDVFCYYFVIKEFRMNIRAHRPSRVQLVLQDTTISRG

[9] = target: T4, G-protein coupled receptor 35; test: SAR analysis of Agonists of the GPR35 Receptor using an Image-Based Assay - Set 3. [Related pubchem assays (depositor defined):AID1961, AID1965]; assay type: functional
[10] = target: Protein Rev (Human immunodeficiency virus type 1 group M subtype B (isolate HXB2)(HIV-1), UniProt P04618); test: inhibitors of Rev binding to RRE RNA, dose response, biochemical, fluorescence polarization, HIV-1 (AID 434976); design: species or system Human immunodeficiency virus 1
Sequence of Protein Rev (P04618 whole entry): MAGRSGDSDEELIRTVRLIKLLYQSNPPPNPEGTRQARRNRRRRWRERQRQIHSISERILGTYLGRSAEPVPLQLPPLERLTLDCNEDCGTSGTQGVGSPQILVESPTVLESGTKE

[11] = target: Female germline-specific tumor suppressor gld-1 (Caenorhabditis elegans, UniProt Q17339); test: inhibitors of GLD-1 binding to TGE RNA, dose response, biochemical, fluorescence polarization, C. elegans (AID 2802);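 note: fluorescence polarization of labeled TGE RNA bound by purified gld-1 protein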
Sequence of Female germline-specific tumor suppressor gld-1 (Q17339 whole entry): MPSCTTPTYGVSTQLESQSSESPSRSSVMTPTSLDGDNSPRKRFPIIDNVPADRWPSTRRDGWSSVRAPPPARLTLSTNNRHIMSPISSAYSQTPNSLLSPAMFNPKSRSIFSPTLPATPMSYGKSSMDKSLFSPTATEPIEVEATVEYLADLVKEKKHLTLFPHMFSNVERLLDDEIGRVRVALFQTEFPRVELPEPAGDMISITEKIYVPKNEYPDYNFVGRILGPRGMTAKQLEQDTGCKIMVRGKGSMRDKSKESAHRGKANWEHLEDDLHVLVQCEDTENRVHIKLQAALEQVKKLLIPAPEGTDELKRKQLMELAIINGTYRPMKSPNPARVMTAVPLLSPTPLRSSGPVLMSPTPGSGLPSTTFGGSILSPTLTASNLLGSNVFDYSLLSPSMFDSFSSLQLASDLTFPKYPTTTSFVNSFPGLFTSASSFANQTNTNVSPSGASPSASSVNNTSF

[12] = target: Glyceraldehyde-3-phosphate dehydrogenase (Homo sapiens, UniProt P04406)
Sequence of Glyceraldehyde-3-phosphate dehydrogenase (P04406 whole entry): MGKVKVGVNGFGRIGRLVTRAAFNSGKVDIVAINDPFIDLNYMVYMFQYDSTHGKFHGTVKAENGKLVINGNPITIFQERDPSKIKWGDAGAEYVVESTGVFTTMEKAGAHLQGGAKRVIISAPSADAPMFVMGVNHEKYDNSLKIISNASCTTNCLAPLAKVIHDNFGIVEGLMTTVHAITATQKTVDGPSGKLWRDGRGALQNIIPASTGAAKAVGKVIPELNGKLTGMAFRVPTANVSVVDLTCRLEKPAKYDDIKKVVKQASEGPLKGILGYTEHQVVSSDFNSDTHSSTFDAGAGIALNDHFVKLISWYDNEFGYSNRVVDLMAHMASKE

[13] = target: T5, Alkaline phosphatase, tissue-nonspecific isozyme (Homo sapiens, UniProt P05186); test: SAR assay for compounds inhibiting TNAP in the absence of phosphate acceptor performed in a luminescent assay. [Related pubchem assays (depositor defined):AID1548, AID1659, AID518]
T5 sequence (P05186 whole entry): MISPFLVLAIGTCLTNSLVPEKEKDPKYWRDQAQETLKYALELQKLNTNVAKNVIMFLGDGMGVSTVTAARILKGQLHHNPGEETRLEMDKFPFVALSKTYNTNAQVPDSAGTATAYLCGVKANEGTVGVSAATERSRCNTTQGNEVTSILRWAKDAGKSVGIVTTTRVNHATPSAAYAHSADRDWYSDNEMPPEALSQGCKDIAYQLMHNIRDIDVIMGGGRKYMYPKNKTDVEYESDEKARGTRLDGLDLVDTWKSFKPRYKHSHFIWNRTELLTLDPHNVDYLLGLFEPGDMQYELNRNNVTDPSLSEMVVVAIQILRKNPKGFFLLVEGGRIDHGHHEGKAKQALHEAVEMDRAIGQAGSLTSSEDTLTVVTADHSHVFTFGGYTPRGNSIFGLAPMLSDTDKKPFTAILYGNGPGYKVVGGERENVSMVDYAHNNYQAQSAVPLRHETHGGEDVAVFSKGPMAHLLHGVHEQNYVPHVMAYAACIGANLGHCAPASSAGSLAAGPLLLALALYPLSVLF

[14] = target: T5, Alkaline phosphatase, tissue-nonspecific isozyme; test: human TNAP enzyme inhibitors, SAR follow-up, biochemical, luminescent, dose response (AID 1056)
[15] = target: Phosphoethanolamine/phosphocholine phosphatase (Homo sapiens, UniProt Q8TCT1); test: SAR assay for compounds that inhibit PHOSPHO1. [Related pubchem assays (depositor defined):AID1545, AID1565, AID1574]
Sequence of Phosphoethanolamine/phosphocholine phosphatase (Q8TCT1 whole entry): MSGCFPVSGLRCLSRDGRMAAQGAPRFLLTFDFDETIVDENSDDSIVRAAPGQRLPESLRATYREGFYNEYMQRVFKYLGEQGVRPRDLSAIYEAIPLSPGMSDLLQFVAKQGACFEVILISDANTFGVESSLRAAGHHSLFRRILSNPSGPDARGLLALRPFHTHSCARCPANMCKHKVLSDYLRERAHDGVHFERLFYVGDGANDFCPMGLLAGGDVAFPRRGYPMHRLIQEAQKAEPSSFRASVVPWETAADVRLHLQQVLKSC

[16] = target: T6, Mannose-6-phosphate isomerase (Homo sapiens, UniProt P34949); test: PMI enzyme inhibitors, confirmation, biochemical, fluorescence intensity (AID 1535)
T6 sequence (P34949 whole entry): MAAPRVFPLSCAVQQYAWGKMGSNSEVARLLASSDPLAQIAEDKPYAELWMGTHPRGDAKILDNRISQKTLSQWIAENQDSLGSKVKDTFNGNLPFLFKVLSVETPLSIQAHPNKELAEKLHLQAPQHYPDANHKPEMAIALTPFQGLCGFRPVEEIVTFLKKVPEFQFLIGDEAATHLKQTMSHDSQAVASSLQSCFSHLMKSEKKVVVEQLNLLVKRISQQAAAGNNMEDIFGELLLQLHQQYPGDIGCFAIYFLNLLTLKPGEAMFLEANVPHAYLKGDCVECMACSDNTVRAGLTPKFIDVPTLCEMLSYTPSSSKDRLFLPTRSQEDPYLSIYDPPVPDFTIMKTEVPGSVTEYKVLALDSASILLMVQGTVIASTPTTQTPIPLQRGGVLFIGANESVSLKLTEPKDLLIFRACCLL

[17] = target: T7, Phosphomannomutase 2 (Homo sapiens, UniProt O15305); test: Counter screen SAR assay for PMM2 inhibitors via a fluorescence intensity assay. [Related pubchem assays (depositor defined):AID1545, AID1574]
T7 sequence (O15305 whole entry): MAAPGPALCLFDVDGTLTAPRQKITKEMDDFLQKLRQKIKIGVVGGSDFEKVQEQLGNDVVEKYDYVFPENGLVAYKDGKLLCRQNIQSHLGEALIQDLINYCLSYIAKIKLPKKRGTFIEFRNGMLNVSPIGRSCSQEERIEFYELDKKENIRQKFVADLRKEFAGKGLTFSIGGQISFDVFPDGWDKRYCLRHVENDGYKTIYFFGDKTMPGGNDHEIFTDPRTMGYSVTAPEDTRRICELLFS

[18] = target: T6, Mannose-6-phosphate isomerase; test: Confirmation of compounds inhibiting phosphomannose isomerase (PMI) via a fluorescence intensity assay using a high concentration of mannose 6-phosphate. [Related pubchem assays (depositor defined):AID1209, AID1220, AID1545, AID1553, AID1620]

Structure (SMILES): COc1ccc(/C=C(\CC(=O)O)c2nc3ccccc3s2)cc1O
IC50 [10]: > 75.4 µM (not active)
IC50 [11]: 2.43 µM (active)

Structure (SMILES): Cc1ccc(C)c(-n2sc3ccccc3c2=O)c1
IC50 [15]: 5.04 µM (inactive)
IC50 [16]: 1.67 µM (active)
IC50 [17]: 17.9 µM (active)
IC50 [18]: 5.51 µM (active)
IC50 [14]: > 100 µM (inactive)

Next, values leading:

IC50 [1]: > 20 µM (not active)
IC50 [2]: > 20 µM (inactive)
Structure (SMILES): CS(=O)(=O)/C(C#N)=C/c1ccc([N+](=O)[O-])cc1

IC50 [3]: > 32 µM (inactive)
IC50 [4]: > 32 µM (inactive)
IC50 [5]: > 32 µM (inactive)
EC50 [6]: > 32 µM (inactive)
EC50 [7]: 7.87 µM (active)
EC50 [8]: 0.779 µM (active)
EC50 [9]: > 32 µM (inactive)
Structure (SMILES): O=C(Nc1cc(S(=O)(=O)N2CCOCC2)ccc1Cl)c1cc2c(s1)CCCC2

IC50 [12]: > 10 µM (inconclusive)
IC50 [13]: 0.00422 µM (active)
IC50 [14]: 0.00744 µM (active)
Structure (SMILES): O=C(NCCO)c1cc(-c2ccc(Cl)c(Cl)c2Cl)n[nH]1
